{
  "source": "patent US9254334B2",
  "about": "“Polyamine derivatives” (CLSN Laboratories, Inc., priority 2009, dated 2016)",
  "key": {"[1]": {"test_system": "VEGF protein", "assay": "In vitro transfection of simVEGF siRNA complexes, supernatant mVEGF protein knockdown", "format": "cell-based, murine", "conditions": "SCCVII cells, 0.5 μg complexed simVEGF siRNA, 6 h + 40 h", "method": "(§1) The transfection activity of siRNA and dioleoyl monoamine delivery reagent conjugate complexes is determined in vitro. Transfection complexes containing simVEGF siRNA construct are prepared by methods previously described in Example 9. SCCVII cells (0.5×10^5 cells/well) are seeded into 24-well tissue culture plates in 10% FBS. Each well is incubated for 6 hours with 0.5 μg of complexed siRNA in a total volume of 250 μL of DMEM. When the incubation period is concluded, 250 μL of DMEM supplemented with 20% FBS is added to the transfected cells and incubated further for another 40 hours. At the end of the incubation period, supernatant mVEGF protein determinations are made.\nas §1, with “siRNA complexes with” for “siRNA and”, “monoamine (Example 3) or methyl-dioleoyl monoamine (Example 3A)” for “monoamine”, “delivery reagents” for “delivery reagent conjugate complexes”, “previously described.” for “previously described in Example 9.”, “are made as described above.” for “are made.”"}, "[2]": {"test_system": "Caveolin-1 (Cav-1) transcript", "assay": "Caveolin-1 transcript knockdown in lung and liver after single iv injection of formulated siRNA (qRTPCR)", "format": "in vivo, mice", "conditions": "100 μg siRNA iv, 10:1 ratio, 48 h, normalized to β-actin, vs non-targeting siRNA control", "method": "A total of 100 μg siRNA is injected in a final volume of 200 μL (0.5 mg/mL). […] Results (FIG. 3) indicate a significant decrease in target specific Cav-1 transcript levels in both lungs (76% knockdown) and livers (62% knockdown). For each group, n=5."}, "[3]": {"test_system": "VEGF transcript", "assay": "VEGF transcript knockdown in subcutaneous tumors after intratumoral injection of formulated siVEGF", "format": "in vivo, mice", "conditions": "VEGF siRNA 5:1 N:P, 0.3 mg/mL, 30 μl intratumoral, 48 h after second injection", "method": "(§2) In this example tumors were implanted into the hind flanks of […] by injecting 5×10^5 squamous cell carcinoma cells. Tumors were allowed to grow until they reached a size of […]. Tumors were then injected with a commercially available siRNA targeting VEGF that was formulated with dioleoyl monoamine at a 5:1 N:P ratio or with a similarly formulated non-silencing control siRNA. The final concentration of siRNA was 0.3 mg/mL. A total of 30 μl of the formulated siRNA solution was injected into tumors and injections were repeated every 3-4 days for a total of 6 injections. The tumors from some animals were harvested 48 hours after the second formulated siRNA injection for transcript analysis."}, "[4]": {"test_system": "squamous cell carcinoma tumors", "assay": "Tumor growth inhibition and survival after intratumoral formulated VEGF siRNA", "format": "in vivo, mice", "method": "as §2"}, "[5]": {"assay": "Controlled release of complexed Cav-1 siRNA from crosslinked alginate gel", "format": "physicochemical", "method": "siRNA complexed with dioleoyl monoamine is formulated as described in Example 39 containing 50 μg Cav-1 siRNA and 1.4 μg dioleoyl monoamine in a volume of 50 μL. Sodium alginate (Type A) is dissolved in water to give a 2% solution. An alginate solution (100 μL) is added to a single well of a 96-well plate followed by 50 μL of the dioleoyl monoamine/Cav-siRNA solution. After thorough mixing, 50 μL of a 0.68 M CaCl2 solution is added to the previous mixture to crosslink the gel. One hundred μL of water or 0.1 M EDTA (which serves to break down the gel by complexing the Ca^2+ ions) is then added to ensure complete submersion of the gel in aqueous solution. At the prescribed time points, the supernatants are removed (200 μL) and replaced with fresh 200 μL water or 0.1 M EDTA. After 84 hours, all collected samples are assayed for Cav-1 siRNA content using qRT-PCR. The siRNA amounts collected at each time point are summed in order to determine amount released over time. In samples that have the addition of EDTA, 100% of the loaded dioleoyl monoamine formulated siRNA is released after 84 hours."}, "[6]": {"conditions": "one week after last of 6 intratumoral injections"}},
  "data": [
    {"compound": "CCCCCCCC/C=C\\CCCCCCCC(=O)NCCN(CCN)CCNC(=O)CCCCCCC/C=C\\CCCCCCCC", "note": "[dioleoyl monoamine, N,N′-dioleoyl tris(aminoethyl)amine]", "values": [
      {"measurement": "knockdown of VEGF protein", "setting": "[1]", "value": "~95", "unit": "%"},
      {"measurement": "Cav-1 transcript knockdown, livers", "setting": "[2]", "value": 62, "unit": "%"},
      {"measurement": "Cav-1 transcript knockdown, lungs", "setting": "[2]", "value": 76, "unit": "%"},
      {"measurement": "decrease in VEGF transcript relative to the non-silencing control group", "setting": "[3]", "value": 32, "unit": "%"},
      {"measurement": "improvement in median survival relative to non-silencing control or untreated groups", "setting": "[4]; VEGF siRNA intratumoral, 6 injections", "value": 13, "unit": "%"},
      {"measurement": "decrease in tumor volume relative to non-silencing siRNA", "setting": "[4]; [6]", "value": 31, "unit": "%"},
      {"measurement": "decrease in tumor volume relative to untreated control animals", "setting": "[4]; [6]", "value": 57, "unit": "%"},
      {"measurement": "loaded siRNA released from alginate gel", "setting": "[5]; with 0.1 M EDTA, after 84 hours", "value": 100, "unit": "%"},
      {"measurement": "loaded siRNA released from alginate gel", "setting": "[5]; without EDTA (water), by 84 hours", "value": "< 20", "unit": "%"}
    ]}
  ]
}
